Laboratory results reported in ChEMBL document CHEMBL1811782, “The 2010 Philip S. Portoghese Medicinal Chemistry Lectureship: addressing the "core issue" in the design of estrogen receptor ligands” (J Med Chem, 2011).

How the values were obtained:
[1] = Relative binding affinity to estrogen receptor relative to estradiol
[2] = target: T1, Estrogen receptor (Homo sapiens) (UniProt P03372); assay: Ratio of estradiol IC50 to compound IC50 for ERalpha receptor by relative binding affinity assay
T1 sequence (whole entry): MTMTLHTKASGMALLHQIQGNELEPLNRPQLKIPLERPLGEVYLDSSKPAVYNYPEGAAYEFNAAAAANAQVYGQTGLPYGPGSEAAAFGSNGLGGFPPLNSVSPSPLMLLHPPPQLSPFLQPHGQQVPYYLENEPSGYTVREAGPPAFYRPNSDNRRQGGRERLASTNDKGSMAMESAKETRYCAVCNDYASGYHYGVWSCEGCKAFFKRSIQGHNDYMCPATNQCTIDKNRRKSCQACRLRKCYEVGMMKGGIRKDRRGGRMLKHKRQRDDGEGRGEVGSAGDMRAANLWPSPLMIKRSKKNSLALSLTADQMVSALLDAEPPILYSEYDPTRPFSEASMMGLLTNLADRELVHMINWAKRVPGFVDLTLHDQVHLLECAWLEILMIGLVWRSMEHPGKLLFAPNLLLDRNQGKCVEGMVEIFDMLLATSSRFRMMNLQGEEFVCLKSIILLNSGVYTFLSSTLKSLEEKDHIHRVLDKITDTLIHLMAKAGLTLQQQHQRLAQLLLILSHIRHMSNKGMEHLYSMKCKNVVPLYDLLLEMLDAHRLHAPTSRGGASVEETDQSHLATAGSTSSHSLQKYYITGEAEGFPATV

[3] = target: Estrogen receptor beta (Homo sapiens) (UniProt Q92731); assay: Ratio of estradiol IC50 to compound IC50 for ERbeta receptor by relative binding affinity assay
Chain of Estrogen receptor beta (Homo sapiens) (Q92731 whole entry): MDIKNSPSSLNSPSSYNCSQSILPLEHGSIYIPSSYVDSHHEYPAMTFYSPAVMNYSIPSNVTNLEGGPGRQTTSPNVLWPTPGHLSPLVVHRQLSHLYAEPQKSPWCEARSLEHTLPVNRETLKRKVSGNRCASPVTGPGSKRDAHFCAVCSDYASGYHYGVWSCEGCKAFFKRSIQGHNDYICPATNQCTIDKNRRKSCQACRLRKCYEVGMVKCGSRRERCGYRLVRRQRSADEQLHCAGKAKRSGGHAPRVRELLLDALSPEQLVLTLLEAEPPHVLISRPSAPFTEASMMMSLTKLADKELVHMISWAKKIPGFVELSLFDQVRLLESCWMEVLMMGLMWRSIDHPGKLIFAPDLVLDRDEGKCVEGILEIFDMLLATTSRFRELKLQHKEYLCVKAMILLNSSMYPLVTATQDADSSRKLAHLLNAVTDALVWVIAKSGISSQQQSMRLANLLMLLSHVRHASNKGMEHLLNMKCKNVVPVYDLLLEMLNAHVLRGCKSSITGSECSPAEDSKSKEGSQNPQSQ

Which RBA [1] does the source give for `CCc1c(-c2ccc(O)cc2)nc(-c2ccccc2)n1-c1ccc(O)cc1` here?
The RBA was 0.37%.

Which Ratio IC50 [2] does the source give for `Cc1cccc(C)c1B(c1c(C)cccc1C)N(C)c1ccc(O)cc1` here?
The Ratio IC50 was 23.

What about the Ratio IC50 [3] of the same compound?
Its Ratio IC50 is 16.

Which Ratio IC50 [2] does the source give for `Cc1cc(C)c(B(c2c(C)cc(C)cc2C)N(CC(F)(F)F)c2ccc(O)cc2)c(C)c1` here?
Its Ratio IC50 is 2.2.

What about the Ratio IC50 [3] of the same compound?
The Ratio IC50 was 1.3.

With `CCN(B(c1c(C)cc(C)cc1C)c1c(C)cc(C)cc1C)c1ccc(O)cc1` as the compound, how does the Ratio IC50 [2] read?
Its Ratio IC50 is 1.3.

What about the Ratio IC50 [3] of the same compound?
The Ratio IC50 was 1.1.

For `Oc1ccc(-c2cc(-c3ccc(O)cc3)n(-c3ccccc3)n2)cc1`, which RBA [1] is on record?
The RBA was 0.03%.

For `CCCCCN(B(c1c(C)cc(C)cc1C)c1c(C)cc(C)cc1C)c1ccc(O)cc1`, which Ratio IC50 [2] is on record?
The Ratio IC50 was 0.16.

What about the Ratio IC50 [3] of the same compound?
The Ratio IC50 was 0.12.

With `Cc1cc(C)c(B(Nc2ccc(O)cc2)c2c(C)cc(C)cc2C)c(C)c1` as the compound, how does the Ratio IC50 [2] read?
The Ratio IC50 was 0.013.

What about the Ratio IC50 [3] of the same compound?
Its Ratio IC50 is 0.18.

For `CCc1c(-c2ccc(O)cc2)nn(-c2ccc(O)cc2)c1-c1ccc(O)cc1`, which RBA [1] is on record?
Its RBA is 19%.

Which RBA [1] does the source give for `CCc1c(-c2ccc(O)cc2)n[nH]c1-c1ccc(O)cc1` here?
The RBA was 0.02%.

For `CCc1c(-c2ccc(O)cc2)nn(-c2ccccc2)c1-c1ccc(O)cc1`, which RBA [1] is on record?
Its RBA is 14%.

With `Cc1cc(C)c(B(c2c(C)cc(C)cc2C)N(C)c2ccc(O)cc2)c(C)c1` as the compound, how does the Ratio IC50 [2] read?
The Ratio IC50 was 1.3.

What about the Ratio IC50 [3] of the same compound?
The Ratio IC50 was 3.1.

With `CCn1c(-c2ccc(O)cc2)nc(-c2ccc(O)cc2)c1-c1ccc(O)cc1` as the compound, how does the RBA [1] read?
The RBA was 0.38%.

For `Oc1ccc(-c2cc(-c3ccc(O)cc3)[nH]n2)cc1`, which RBA [1] is on record?
The RBA was 0.009%.

Which results are given for `Cc1cccc(C)c1B(c1c(C)cccc1C)N(CC(F)(F)F)c1ccc(O)cc1`?
Ratio IC50 [2]: 10; Ratio IC50 [3]: 5.8

With `CCn1c(-c2ccc(O)cc2)nc(-c2ccccc2)c1-c1ccc(O)cc1` as the compound, how does the RBA [1] read?
Its RBA is 0.25%.
